Target: T1, recombinant full length LRRK2 over-expressed in SH-SY5Y cells (Homo sapiens, UniProt Q5S007)
T1 construct: A BacMam virus expressing full length recombinant LRRK2 was purchased from Invitrogen; host or cells: SH-SY5Y human neuroblastoma cells transduced with BacMam LRRK2 virus
Assay: Recombinant cellular LRRK2 AlphaScreen assay (LRRK2 Ser935 phosphorylation)
Format: cell-based
Details: SH-SY5Y cells with BacMam LRRK2, 60 minutes compound incubation, read-out: recombinant cellcular LRRK2 alphaScreen assay (pIC50) (converted)
Experimental: Recombinant Cellular LRRK2 AlphaScreen Assay
A BacMam virus expressing full length recombinant LRRK2 was purchased from Invitrogen and amplified by inoculation of SF-9 cells at MOI 0.3 for 4-5 days in Sf-900 III SFM medium supplemented with 3% fetal bovine serum. Infected cell cultures were then centrifuged at 2000 g for 20 minutes, viral supernatant titer determined by anti-gp64 plaque assay and stored at 4° C.
Affinity-purified anti-phospho LRRK2 Ser935 sheep polyclonal antibody (Dzamko et al., 2010, Biochem. J. 430: 405-413) was biotinylated by standard methods (PerkinElmer). Anti-LRRK2 rabbit polyclonal antibody was purchased from Novus Biologicals. AlphaScreen Protein A IgG Kit (including acceptor and donor beads) was purchased from Perkin Elmer.
SH-SY5Y cells were grown in DMEM/F12 medium with 10% dialysed fetal bovine serum and harvested by treatment with 0.5% trypsin-EDTA for 5 minutes at […] followed by centrifugation at 1000 rpm for 4 minutes. The cell pellet was resuspended in Opti-MEM reduced serum media (Invitrogen) at 200,000 cells/ml and mixed with the BacMam LRRK2 virus at MOI=50. 50 μl cell solutions were then dispensed to each well of a 384-well plate and incubated at 37° C., 5% CO2 for 24 hours.
Serial dilutions of test compounds were prepared in Opti-MEM reduced serum media (Invitrogen) and 5.6 ul transferred from compound plate to cell assay plate to achieve a top final assay concentration of 10 uM. DMSO was used in certain wells as controls. Cells were incubated at 37° C., 5% CO2 for 60 minutes. The medium was then removed and cells lysed by addition of 20 ul cell lysis buffer (Cell Signaling Technology) and incubation at 4° C. for 20 minutes. 10 ul of antibody/acceptor bead mix [(1/1000 biotinylated-pS935 LRRK2 antibody, 1/1000 total-LRRK2 antibody, 1/100 Acceptor beads in AlphaScreen detection buffer (25 mM Hepes (pH 7.4), 0.5% Triton X-100, 1 mg/ml Dextran 500 and 0.1% BSA)] was then added to each well and plates incubated for 2 hours at ambient temperature in the dark. 10 μl of donor beads solution (1/33.3 donor beads in AlphaScreen detection buffer) was then added to each well. Following incubation for a further 2 hours at ambient temperature in the dark, plates were read on an EnVision™ plate reader at emission 520-620 nm with excitation 680 nm. Dose response curve data was based on sigmoidal dose-response model.

T1 sequence (Q5S007 whole entry): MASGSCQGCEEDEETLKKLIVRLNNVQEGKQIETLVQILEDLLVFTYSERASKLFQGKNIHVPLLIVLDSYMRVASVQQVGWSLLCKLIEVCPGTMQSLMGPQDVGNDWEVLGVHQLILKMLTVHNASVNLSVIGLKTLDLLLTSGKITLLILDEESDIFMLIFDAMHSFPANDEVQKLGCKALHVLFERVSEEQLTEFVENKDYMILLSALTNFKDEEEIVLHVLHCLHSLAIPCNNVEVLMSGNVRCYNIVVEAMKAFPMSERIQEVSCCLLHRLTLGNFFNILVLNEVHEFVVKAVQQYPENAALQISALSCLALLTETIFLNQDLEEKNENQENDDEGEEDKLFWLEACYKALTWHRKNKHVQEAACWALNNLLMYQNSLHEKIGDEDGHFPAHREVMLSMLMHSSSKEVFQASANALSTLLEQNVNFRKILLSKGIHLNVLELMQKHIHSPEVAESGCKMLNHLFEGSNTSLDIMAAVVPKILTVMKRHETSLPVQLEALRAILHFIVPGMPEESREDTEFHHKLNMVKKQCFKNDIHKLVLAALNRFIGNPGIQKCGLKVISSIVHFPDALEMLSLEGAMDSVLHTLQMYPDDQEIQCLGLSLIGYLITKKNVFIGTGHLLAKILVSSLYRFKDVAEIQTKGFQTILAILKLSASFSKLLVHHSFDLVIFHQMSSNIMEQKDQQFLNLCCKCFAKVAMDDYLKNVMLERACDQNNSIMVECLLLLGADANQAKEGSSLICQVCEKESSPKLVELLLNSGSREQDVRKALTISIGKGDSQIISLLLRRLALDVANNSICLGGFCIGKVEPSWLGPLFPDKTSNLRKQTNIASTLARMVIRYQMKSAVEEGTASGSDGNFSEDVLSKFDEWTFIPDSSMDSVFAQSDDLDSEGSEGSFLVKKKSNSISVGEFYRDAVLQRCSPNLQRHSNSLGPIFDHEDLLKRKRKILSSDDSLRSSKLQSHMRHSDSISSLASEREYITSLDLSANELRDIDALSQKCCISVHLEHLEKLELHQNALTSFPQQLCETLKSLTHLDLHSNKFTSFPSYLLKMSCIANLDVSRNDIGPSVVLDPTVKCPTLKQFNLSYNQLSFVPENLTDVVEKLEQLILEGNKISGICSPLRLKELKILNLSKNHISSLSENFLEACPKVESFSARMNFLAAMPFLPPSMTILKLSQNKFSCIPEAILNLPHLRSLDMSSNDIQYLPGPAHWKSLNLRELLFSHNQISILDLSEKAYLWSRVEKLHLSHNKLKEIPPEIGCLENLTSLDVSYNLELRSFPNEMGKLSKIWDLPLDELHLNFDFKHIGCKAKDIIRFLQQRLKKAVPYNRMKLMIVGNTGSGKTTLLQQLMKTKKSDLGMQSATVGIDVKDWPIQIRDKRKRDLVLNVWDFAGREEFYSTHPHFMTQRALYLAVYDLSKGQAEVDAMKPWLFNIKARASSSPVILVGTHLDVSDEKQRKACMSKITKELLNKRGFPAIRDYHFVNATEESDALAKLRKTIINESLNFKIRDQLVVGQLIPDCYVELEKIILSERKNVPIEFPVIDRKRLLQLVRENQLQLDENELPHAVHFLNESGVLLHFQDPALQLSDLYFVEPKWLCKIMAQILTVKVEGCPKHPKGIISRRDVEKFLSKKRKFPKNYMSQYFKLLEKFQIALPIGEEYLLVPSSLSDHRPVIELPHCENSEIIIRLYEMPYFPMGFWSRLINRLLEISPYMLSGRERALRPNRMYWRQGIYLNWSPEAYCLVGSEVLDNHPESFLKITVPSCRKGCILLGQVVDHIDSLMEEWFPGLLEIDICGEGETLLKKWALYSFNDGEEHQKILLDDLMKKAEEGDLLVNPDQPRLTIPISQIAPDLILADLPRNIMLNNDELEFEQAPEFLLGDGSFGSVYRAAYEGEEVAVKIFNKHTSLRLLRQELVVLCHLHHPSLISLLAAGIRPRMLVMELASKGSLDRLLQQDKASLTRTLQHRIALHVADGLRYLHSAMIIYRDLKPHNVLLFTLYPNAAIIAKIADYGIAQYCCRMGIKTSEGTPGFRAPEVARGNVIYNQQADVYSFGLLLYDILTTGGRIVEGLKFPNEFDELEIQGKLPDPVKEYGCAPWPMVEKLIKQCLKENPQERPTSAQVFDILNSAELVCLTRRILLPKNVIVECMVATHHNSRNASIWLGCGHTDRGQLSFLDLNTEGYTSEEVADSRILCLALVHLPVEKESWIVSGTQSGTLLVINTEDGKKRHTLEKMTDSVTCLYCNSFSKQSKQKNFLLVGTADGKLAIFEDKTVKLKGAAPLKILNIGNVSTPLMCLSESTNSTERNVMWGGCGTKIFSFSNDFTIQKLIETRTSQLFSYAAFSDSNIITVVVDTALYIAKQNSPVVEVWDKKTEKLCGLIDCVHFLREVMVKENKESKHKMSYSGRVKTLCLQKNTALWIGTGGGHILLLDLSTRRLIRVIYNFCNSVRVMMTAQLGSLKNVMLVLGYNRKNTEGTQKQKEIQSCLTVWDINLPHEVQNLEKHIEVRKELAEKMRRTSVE

| Compound | IC50 [nM] |
| --- | --- |
| CCOc1nc(Nc2ccc(C(=O)N3CCN(C)CC3)cc2OC)nc2[nH]cc(C)c12 [Example E31, (4-((4-ethoxy-5-methyl-7H-pyrrolo-[2,3-d]pyrimidin-2-yl)amino)-3-methoxyphenyl)(4-methylpiperazin-1-yl)methanone] | ≤ 100 |
| CCOc1nc(Nc2cc(F)c(C(=O)N3CCOCC3)cc2OC)nc2[nH]ccc12 [Example E2, (4-((4-ethoxy-7H-pyrrolo-[2,3-d]-pyrimidin-2-yl)amino)-2-fluoro-5-methoxyphenyl)(morpholino)methanone] | 200 |
| CCOc1nc(Nc2ccc(C(=O)N3CCOC[C@@H]3C)cc2OC)nc2[nH]ccc12 [Example E27, (S)-(4-((4-ethoxy-7H-pyrrolo-[2,3-d]pyrimidin-2-yl)amino)-3-methoxyphenyl)(3-methylmorpholino)methanone] | ≤ 100 |
| CCOc1nc(Nc2ccc(C(=O)N3CCN(C)C[C@H]3C)cc2OC)nc2[nH]ccc12 [Example E40, (R)-(2,4-dimethylpiperazin-1-yl)(4-((4-ethoxy-7H-pyrrolo-[2,3-d]-pyrimidin-2-yl)-amino)-3-methoxyphenyl)methanone] | 50.1 |
| CCOc1nc(Nc2ccc(C(=O)N3CCC4(CC3)CN(C)C4)cc2OC)nc2[nH]ccc12 [Example E13, (4-((4-ethoxy-7H-pyrrolo-[2,3-d]-pyrimidin-2-yl)amino)-3-methoxyphenyl)(2-methyl-2,7-diazaspiro-[3.5]-nonan-7-yl)methanone] | ≤ 100 |
| CCOc1nc(Nc2ccc(C(=O)N3CCOCC3)cc2OC)nc2[nH]ccc12 [Example E1, (4-((4-ethoxy-7H-pyrrolo-[2,3-d]-pyrimidin-2-yl)amino)-3-methoxyphenyl)(morpholino)methanone] | 158 |
| CCOc1nc(Nc2ccc(C(=O)N3CCC(N4CCN(C)CC4)CC3)cc2OC)nc2[nH]ccc12 [Example E4, (4-((4-ethoxy-7H-pyrrolo-[2,3-d]pyrimidin-2-yl)amino)-3-methoxyphenyl)(4-(4-methylpiperazin-1-yl)-piperidin-1-yl)-methanone] | ≤ 100 |
| CCOc1cc(C(=O)N2CCOCC2)ccc1Nc1nc(OCC)c2cc[nH]c2n1 [Example E20, (3-ethoxy-4-((4-ethoxy-7H-pyrrolo-[2,3-d]pyrimidin-2-yl)amino)phenyl)(morpholino)methanone] | 200 |
| CCOc1nc(Nc2ccc(C(=O)N3CCN(C)CC3)cc2OC)nc2[nH]ccc12 [Example E3, (4-((4-ethoxy-7H-pyrrolo-[2,3-d]-pyrimidin-2-yl)amino)-3-methoxyphenyl)(4-methylpiperazin-1-yl)-methanone] | 158 |
| CCOc1nc(Nc2ccc(C(=O)N3CCC4(CC3)CC4)cc2OC)nc2[nH]ccc12 [Example E16, (4-((4-ethoxy-7H-pyrrolo-[2,3-d]-pyrimidin-2-yl)amino)-3-methoxyphenyl)(6-azaspiro-[2.5]octan-6-yl)methanone] | 398 |
| CCOc1nc(Nc2ccc(C(=O)N3CCOCC3)cc2)nc2[nH]ccc12 [Example E9, (4-((4-ethoxy-7H-pyrrolo-[2,3-d]pyrimidin-2-yl)amino)phenyl)(morpholino)methanone] | ≤ 100 |
| CCOc1nc(Nc2ccc(C(=O)N3CCN(C)CC3)cc2OC(C)C)nc2[nH]ccc12 [Example E24, (4-((4-ethoxy-7H-pyrrolo-[2,3-d]pyrimidin-2-yl)amino)-3-isopropoxyphenyl)(4-methylpiperazin-1-yl)methanone] | 398 |

Source: patent US9815841B2, “Compounds” (GLAXOSMITHKLINE INTELLECTUAL PROPERTY DEVELOPMENT LIMITED, priority 2014, dated 2017)
